Measurements taken from ChEMBL document CHEMBL4130587, “Chemical Compounds as Inhibitors of Kinase Activity for the Treatment of Cancer and COPD” (ACS Med Chem Lett, 2017).
pIC50: −log10 of the molar value.

Experiments:
[1] = target: Phosphatidylinositol 4,5-bisphosphate 3-kinase catalytic subunit beta isoform (Homo sapiens, UniProt P42338); experiment: Inhibition of GST-tagged PI3Kbeta […] (unknown origin) using PIP2 as subtrate after 1 hr in presence of biotin-labeled PIP3 by TR-FRET assay
[2] = target: Phosphatidylinositol 4,5-bisphosphate 3-kinase catalytic subunit gamma isoform (Homo sapiens, UniProt P48736); experiment: Inhibition of GST-tagged PI3Kgamma […] (unknown origin) using PIP2 as subtrate after 1 hr in presence of biotin-labeled PIP3 by TR-FRET assay
Sequence of Phosphatidylinositol 4,5-bisphosphate 3-kinase catalytic subunit gamma isoform (P48736 whole entry, canonical isoform): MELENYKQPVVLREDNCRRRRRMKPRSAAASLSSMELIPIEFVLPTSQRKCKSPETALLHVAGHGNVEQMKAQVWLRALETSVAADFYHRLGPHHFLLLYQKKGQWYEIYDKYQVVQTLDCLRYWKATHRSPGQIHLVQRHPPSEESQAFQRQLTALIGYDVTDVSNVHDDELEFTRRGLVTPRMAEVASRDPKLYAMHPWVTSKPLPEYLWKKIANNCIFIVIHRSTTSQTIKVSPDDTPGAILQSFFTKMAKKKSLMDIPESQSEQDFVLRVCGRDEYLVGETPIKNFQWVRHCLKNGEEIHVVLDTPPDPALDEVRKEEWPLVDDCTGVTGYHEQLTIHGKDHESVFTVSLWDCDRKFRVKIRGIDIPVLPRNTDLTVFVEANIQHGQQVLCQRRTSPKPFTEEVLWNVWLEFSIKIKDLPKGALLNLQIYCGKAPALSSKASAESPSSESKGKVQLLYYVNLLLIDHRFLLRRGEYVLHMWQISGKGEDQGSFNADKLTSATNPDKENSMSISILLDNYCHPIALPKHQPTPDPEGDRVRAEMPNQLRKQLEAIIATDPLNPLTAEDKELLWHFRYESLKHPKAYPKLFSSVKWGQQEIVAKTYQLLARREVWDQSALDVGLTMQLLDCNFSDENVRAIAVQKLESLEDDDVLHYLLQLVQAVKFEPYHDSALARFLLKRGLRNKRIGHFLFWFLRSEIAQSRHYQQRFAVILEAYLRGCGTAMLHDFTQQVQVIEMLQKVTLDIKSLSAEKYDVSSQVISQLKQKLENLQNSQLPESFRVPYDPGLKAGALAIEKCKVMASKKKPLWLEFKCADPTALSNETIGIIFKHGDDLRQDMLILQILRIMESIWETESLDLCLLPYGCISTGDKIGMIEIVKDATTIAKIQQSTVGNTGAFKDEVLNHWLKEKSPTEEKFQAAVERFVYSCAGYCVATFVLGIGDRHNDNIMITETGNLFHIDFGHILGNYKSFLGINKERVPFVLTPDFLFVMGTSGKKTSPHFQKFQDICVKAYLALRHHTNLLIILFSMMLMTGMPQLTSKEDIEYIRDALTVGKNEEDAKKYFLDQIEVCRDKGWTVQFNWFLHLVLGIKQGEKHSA

[3] = target: T1, Phosphatidylinositol 4,5-bisphosphate 3-kinase catalytic subunit delta isoform (Homo sapiens, UniProt O00329); experiment: Inhibition of GST-tagged PI3Kdelta […] (unknown origin) using PIP2 as subtrate after 1 hr in presence of biotin-labeled PIP3 by TR-FRET assay
T1 sequence (O00329 whole entry): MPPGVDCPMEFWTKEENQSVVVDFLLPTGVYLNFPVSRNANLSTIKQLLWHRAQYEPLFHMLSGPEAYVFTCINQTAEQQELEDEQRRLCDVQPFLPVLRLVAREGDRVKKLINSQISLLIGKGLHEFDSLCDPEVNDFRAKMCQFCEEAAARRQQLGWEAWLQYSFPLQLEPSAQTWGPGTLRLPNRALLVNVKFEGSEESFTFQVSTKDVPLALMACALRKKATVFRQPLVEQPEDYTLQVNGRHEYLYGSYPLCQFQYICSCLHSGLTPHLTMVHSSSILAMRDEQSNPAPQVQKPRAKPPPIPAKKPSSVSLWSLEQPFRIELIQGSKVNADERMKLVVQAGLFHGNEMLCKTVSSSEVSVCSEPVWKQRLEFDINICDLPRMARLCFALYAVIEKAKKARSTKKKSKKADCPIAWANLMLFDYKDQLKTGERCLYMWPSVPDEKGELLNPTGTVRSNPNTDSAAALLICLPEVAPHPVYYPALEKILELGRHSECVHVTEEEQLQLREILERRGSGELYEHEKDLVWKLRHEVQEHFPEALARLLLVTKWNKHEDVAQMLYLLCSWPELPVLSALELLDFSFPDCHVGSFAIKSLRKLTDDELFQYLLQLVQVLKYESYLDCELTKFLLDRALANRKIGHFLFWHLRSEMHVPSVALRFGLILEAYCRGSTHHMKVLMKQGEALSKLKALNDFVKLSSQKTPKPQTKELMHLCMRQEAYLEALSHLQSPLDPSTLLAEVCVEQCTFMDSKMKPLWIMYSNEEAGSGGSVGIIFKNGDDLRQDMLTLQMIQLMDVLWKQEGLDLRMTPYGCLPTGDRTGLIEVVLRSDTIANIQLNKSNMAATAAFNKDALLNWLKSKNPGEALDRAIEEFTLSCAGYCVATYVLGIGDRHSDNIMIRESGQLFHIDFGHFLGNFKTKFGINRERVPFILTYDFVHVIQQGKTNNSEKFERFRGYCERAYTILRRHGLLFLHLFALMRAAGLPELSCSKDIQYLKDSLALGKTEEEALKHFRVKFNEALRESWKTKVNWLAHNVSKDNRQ

[4] = target: Phosphatidylinositol 4,5-bisphosphate 3-kinase catalytic subunit alpha isoform (Homo sapiens, UniProt P42336); experiment: Inhibition of GST-tagged PI3Kalpha […] (unknown origin) using PIP2 as subtrate after 1 hr in presence of biotin-labeled PIP3 by TR-FRET assay
Sequence of Phosphatidylinositol 4,5-bisphosphate 3-kinase catalytic subunit alpha isoform (P42336 whole entry, canonical isoform): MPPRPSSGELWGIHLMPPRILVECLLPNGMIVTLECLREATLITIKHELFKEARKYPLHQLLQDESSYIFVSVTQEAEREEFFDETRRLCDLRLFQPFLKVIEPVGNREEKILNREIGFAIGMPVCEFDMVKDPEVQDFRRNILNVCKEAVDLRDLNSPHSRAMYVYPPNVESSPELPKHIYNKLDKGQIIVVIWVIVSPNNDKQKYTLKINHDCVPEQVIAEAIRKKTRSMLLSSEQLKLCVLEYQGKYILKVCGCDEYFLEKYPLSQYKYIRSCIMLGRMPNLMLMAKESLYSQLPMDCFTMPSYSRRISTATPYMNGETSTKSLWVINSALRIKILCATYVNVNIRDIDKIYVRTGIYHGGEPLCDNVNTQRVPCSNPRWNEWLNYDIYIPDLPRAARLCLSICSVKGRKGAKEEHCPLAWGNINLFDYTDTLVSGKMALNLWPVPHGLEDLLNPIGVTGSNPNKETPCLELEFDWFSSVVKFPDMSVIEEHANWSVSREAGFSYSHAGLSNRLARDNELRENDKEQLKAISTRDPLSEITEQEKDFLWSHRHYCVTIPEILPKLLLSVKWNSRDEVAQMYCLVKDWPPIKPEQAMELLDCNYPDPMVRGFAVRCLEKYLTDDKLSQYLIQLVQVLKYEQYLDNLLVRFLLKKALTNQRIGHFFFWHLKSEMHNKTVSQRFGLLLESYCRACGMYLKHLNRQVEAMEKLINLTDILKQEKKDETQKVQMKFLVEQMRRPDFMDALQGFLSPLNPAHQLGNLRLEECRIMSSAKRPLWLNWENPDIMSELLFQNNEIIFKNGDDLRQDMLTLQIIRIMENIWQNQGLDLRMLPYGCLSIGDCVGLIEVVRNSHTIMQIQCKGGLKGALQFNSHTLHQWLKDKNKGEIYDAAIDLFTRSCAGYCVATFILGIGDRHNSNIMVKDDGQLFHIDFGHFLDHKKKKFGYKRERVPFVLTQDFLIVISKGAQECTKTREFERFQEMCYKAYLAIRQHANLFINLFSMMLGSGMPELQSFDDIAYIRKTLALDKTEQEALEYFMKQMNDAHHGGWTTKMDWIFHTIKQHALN

Measured: pIC50

Sequence of Phosphatidylinositol 4,5-bisphosphate 3-kinase catalytic subunit beta isoform (P42338 whole entry, canonical isoform): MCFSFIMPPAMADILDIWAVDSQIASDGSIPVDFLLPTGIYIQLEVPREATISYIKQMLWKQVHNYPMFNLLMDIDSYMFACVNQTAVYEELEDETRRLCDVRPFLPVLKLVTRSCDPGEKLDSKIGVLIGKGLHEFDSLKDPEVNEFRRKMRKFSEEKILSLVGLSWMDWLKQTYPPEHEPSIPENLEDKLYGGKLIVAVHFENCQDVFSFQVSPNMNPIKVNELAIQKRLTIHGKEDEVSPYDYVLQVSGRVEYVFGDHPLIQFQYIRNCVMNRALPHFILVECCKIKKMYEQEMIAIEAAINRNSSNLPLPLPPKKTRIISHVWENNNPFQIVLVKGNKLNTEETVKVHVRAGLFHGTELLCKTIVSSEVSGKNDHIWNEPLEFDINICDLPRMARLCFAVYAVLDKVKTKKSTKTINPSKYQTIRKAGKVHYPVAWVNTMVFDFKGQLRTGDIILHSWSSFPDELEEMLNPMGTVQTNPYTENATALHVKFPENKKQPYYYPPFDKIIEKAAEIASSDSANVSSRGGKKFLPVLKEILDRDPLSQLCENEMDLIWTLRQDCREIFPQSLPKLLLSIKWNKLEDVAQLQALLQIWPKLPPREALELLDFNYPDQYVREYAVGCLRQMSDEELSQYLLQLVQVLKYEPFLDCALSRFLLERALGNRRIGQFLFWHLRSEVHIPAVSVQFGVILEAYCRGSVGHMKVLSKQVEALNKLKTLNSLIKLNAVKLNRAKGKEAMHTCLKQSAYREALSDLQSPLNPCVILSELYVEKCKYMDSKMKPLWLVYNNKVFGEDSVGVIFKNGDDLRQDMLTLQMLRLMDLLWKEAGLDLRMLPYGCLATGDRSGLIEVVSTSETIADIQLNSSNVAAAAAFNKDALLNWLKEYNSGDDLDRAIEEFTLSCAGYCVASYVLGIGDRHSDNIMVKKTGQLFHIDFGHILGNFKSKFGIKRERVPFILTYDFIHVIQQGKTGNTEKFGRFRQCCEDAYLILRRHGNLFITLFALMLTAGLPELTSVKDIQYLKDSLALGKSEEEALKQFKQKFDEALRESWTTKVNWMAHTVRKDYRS

COc1ncc(N2CCOCC2)cc1S(=O)(=O)Nc1ccnc(-c2ccc(CN3CCN(C4CCC4)CC3)cc2F)c1
≥ 5.00: all assays above

CC(C)N1CCN(Cc2ccc(-c3cc(NS(=O)(=O)c4cc(N5CCOCC5)cnc4N(C)C)ccn3)c(F)c2)CC1
≥ 5.00: all assays above

CCC(C)N1CCN(Cc2ccc(-c3cc(NS(=O)(=O)c4cc(N5CCOCC5)cnc4OC)ccn3)cc2)CC1 (centres undefined)
≥ 5.00: all assays above

COCCN1CCN(Cc2ccc(-c3cc(NS(=O)(=O)c4cc(N5CCOCC5)cnc4OC)ccn3)c(F)c2)CC1
≥ 5.00: all assays above

COc1ncc(N2CCOCC2)cc1S(=O)(=O)Nc1ccnc(-c2ccc(CN3CCC(C)C3)cc2F)c1 (centres undefined)
≥ 5.00: all assays above

CCOC(=O)CN(c1ccnc(-c2ccc(CN3CCN(C(C)C)CC3)cc2F)c1)S(=O)(=O)c1cc(N2CCOCC2)cnc1OC
≥ 5.00: all assays above

CCOc1ncc(N2CCOCC2)cc1S(=O)(=O)Nc1ccnc(-c2ccc(CN3C[C@@H](C)O[C@@H](C)C3)cc2F)c1
≥ 5.00: all assays above

COc1ncc(N2CCOCC2)cc1S(=O)(=O)N(c1ccnc(-c2ccc(CN3CCN(C(C)C)CC3)cc2F)c1)C(C)C
≥ 5.00: all assays above

COc1ncc(N2CCOCC2)cc1S(=O)(=O)Nc1ccnc(-c2ccc(CN3CCN(C(C)(C)C)CC3)cc2)c1
≥ 5.00: all assays above

COc1ncc(N2CCOCC2)cc1S(=O)(=O)Nc1ccnc(-c2ccc(CN3C[C@@H](C)O[C@@H](C)C3)cc2)c1
≥ 5.00: all assays above

CN(C)c1ncc(N2CCOCC2)cc1S(=O)(=O)Nc1ccnc(-c2ccc(CN3CCN(C(C)(C)C)CC3)cc2F)c1
≥ 5.00: all assays above

COc1ncc(N2CCOCC2)cc1S(=O)(=O)Nc1ccnc(-c2ccc(CN3CCCCC3)cc2F)c1
≥ 5.00: all assays above

COc1ncc(N2CCOCC2)cc1S(=O)(=O)Nc1ccnc(-c2ccc(CN3CCN(C(C)C)CC3)cc2F)c1
≥ 5.00: all assays above

COc1ncc(N2CCOCC2)cc1S(=O)(=O)Nc1ccnc(-c2cc(Cl)c(CN3CCN(C(C)C)CC3)cc2F)c1
≥ 5.00: all assays above

CCN(c1ccnc(-c2ccc(CN3CCN(C(C)C)CC3)cc2F)c1)S(=O)(=O)c1cc(N2CCOCC2)cnc1OC
≥ 5.00: all assays above

COc1ncc(N2CCOCC2)cc1S(=O)(=O)Nc1ccnc(-c2c(F)cc(CN3CCN(C(C)C)CC3)cc2F)c1
≥ 5.00: all assays above

COc1ncc(N2CCOCC2)cc1S(=O)(=O)Nc1ccnc(-c2ccc(CN3CCN(C(C)C)CC3)cc2)c1
≥ 5.00: all assays above

COc1ncc(N2CCOCC2)cc1S(=O)(=O)Nc1ccnc(-c2ccc(CN3CCNCC3)cc2F)c1
≥ 5.00: all assays above

COc1ncc(N2CCOCC2)cc1S(=O)(=O)Nc1ccnc(-c2ccc(CN3CCCC3C)cc2F)c1 (centres undefined)
≥ 5.00: all assays above

CCCN(c1ccnc(-c2ccc(CN3CCN(C(C)C)CC3)cc2F)c1)S(=O)(=O)c1cc(N2CCOCC2)cnc1OC
≥ 5.00: all assays above

COc1ncc(N2CCOCC2)cc1S(=O)(=O)Nc1ccnc(-c2ccc(CN3CCN(C(C)C)CC3)c(F)c2)c1
≥ 5.00: all assays above

COc1ncc(N2CCOCC2)cc1S(=O)(=O)Nc1ccnc(-c2ccc(CN3CCOCC3)cc2)c1
≥ 5.00: all assays above

COc1ncc(N2CCOCC2)cc1S(=O)(=O)Nc1ccnc(-c2cc(F)c(CN3CCN(C(C)C)CC3)cc2F)c1
≥ 5.00: all assays above

COc1ncc(N2CCOCC2)cc1S(=O)(=O)Nc1ccnc(-c2ccc(CN3CCC(C(C)(C)O)CC3)cc2F)c1
≥ 5.00: all assays above

COc1ncc(N2CCOCC2)cc1S(=O)(=O)N(COC(=O)C(C)(C)C)c1ccnc(-c2ccc(CN3CCN(C(C)C)CC3)cc2F)c1
≥ 5.00: all assays above

COc1ncc(N2CCOCC2)cc1S(=O)(=O)Nc1ccnc(-c2ccc(CN3CCN(C(C)(C)C)CC3)cc2F)c1
≥ 5.00: all assays above

COc1ncc(N2CCOCC2)cc1S(=O)(=O)Nc1ccnc(-c2ccc(CN3C[C@@H](C)O[C@@H](C)C3)cc2F)c1
≥ 5.00: all assays above

COc1ncc(N2CCOCC2)cc1S(=O)(=O)N(C)c1ccnc(-c2ccc(CN3CCN(C(C)C)CC3)cc2F)c1
≥ 5.00: all assays above

COc1ncc(N2CCOCC2)cc1S(=O)(=O)N(C)c1ccnc(-c2ccc(CN3CCN(C(C)(C)C)CC3)cc2F)c1
≥ 5.00: all assays above

COc1ncc(N2CCOCC2)cc1S(=O)(=O)Nc1ccnc(-c2ccc(CN3CCN(C4CCC4)CC3)cc2)c1
≥ 5.00: all assays above

COc1ncc(N2CCOCC2)cc1S(=O)(=O)Nc1ccnc(-c2ccc(CN(C)C)cc2)c1
≥ 5.00: all assays above
